Marks after values point to notes of the source that are not given here.
Assays:
[1] = biological target: T1, microsomal fatty acid amide hydrolase (FAAH) (Homo sapiens, UniProt O00519); experiment: Lowest detection limits of microsomal FAAH toward colorimetric and fluorescent substrates; type: biochemical
T1 construct: made in house; host or cells: Trichoplusia ni High Five cells infected with recombinant baculovirus Ac-hFAAH; microsomal fraction
T1 sequence (O00519 1-579): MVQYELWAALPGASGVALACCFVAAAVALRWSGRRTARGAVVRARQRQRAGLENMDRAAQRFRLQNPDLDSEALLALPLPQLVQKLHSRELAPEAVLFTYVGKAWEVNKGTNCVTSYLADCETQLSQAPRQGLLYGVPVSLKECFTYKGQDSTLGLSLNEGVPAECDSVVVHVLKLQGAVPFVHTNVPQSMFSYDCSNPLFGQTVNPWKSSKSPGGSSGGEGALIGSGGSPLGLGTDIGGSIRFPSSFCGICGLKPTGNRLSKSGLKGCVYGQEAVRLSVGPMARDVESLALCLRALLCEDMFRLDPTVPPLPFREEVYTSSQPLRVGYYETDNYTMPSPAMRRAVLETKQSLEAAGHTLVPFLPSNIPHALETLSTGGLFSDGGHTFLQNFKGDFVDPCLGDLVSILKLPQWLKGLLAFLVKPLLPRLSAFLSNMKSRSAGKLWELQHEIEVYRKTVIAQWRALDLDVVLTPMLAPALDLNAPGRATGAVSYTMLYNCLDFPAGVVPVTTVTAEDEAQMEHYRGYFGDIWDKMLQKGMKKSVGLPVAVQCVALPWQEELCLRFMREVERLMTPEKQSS
Protocol: Preparation of recombinant human FAAH. Transgenic expression of the human FAAH in a baculovirus system was performed by following the method described in Nishi et al., Arch. Biochem. Biophys., 445:115-123 (2006). The cDNA encoding human FAAH (GenBank Accession No. NM_001441) was amplified by PCR using a human liver cDNA library (Invitrogen; Carlsbad, Calif.) as a template. The primer pair was 5′-[…]-3′ and 5′-[…]-3′. BglII and EcoRI endonuclease sites (underlined) were incorporated just upstream of the start codon and downstream of the stop codon of the coding sequence of FAAH, respectively. The PCR products were cloned into a pCR2.1 vector (Invitrogen) and the nucleotide sequence was verified by DNA sequencing. The cDNA fragments were then excised and directionally ligated to the BglII and EcoRI sites of the baculovirus transfer vector pAcUW21 (Lopez-Ferber et al., Baculovirus transfer vectors, in “Baculovirus Expression Protocols,” Richardson (Ed.), pp 25-63, Humana Press, Totowa, N.J., 1995). Recombinant baculoviruses harboring the human FAAH gene, Ac-hFAAH, were generated by co-transfection of Spodoptera frugiperda-derived Sf21 cells with the recombinant transfer vector plasmid and Bsu36I-cleaved BacPAK6 viral DNA (Clontech Laboratories; Mountain View, Calif.) as described in O'Reilly et al., Baculovirus Expression Vectors: A Laboratory Manual, Oxford University Press, New York, 1992. Trichoplusia ni-derived High Five cells (1×10^6 cells/ml) were inoculated with a high titer of Ac-hFAAH. At 72 hours post-infection, the infected cells were harvested by centrifugation at 2,000×g for 20 min at 4° C. and suspended in 50 mM Tris-HCl (pH 8.0) containing 150 mM NaCl, 1 mM EDTA, 1 μM pepstatin, 100 μM leupeptin, and 0.1 mg/ml aprotinin. The cell suspension was then homogenized using a Polytron homogenizer and centrifuged at 10,000×g for 20 min at 4° C. The microsomal fraction was collected by ultracentrifugation of the supernatant at 100,000×g for 60 min at 4° C. The pellet was resuspended in 20 mM Tris-HCl (pH 8.0) containing 10% (w/v) glycerol and 1% (w/v) Triton-X 100 and stored at −80° C. until use.
Comparison of the lowest detection limits of protein concentration of FAAH toward colorimetric and fluorescent substrates. In general, all assays were performed in 96-well styrene flat-bottom microtiter plates with a Spectra Max M2 spectrophotometer at 37° C. for […]. The total volume of each well was 201 μl consisting of 0.1 M sodium phosphate buffer (pH 8.0) (190 μl) containing 1% glycerol and 0.1% Triton-X 100, stock or diluted protein solution (10 μl), and the substrate solution (1 μl) in ethanol (final concentration 200 μM for 10, 11, 13 or 14) or in DMSO (final concentration 25 μM for 12, 15, or 16; 50 μM for 17). The lowest detection limits of microsomal fatty acid amide hydrolase (FAAH) by substrates were determined by the fact that the signal at 10 min after kinetic measurements are equal to or over three times the noise or basal line at 0 min. Colorimetric substrate (16) assays were performed in clear 96-well microtititer plates using an absorbance wavelength at 382 nm. The fluorescent substrates containing 5-amino-2-methoxypyridine (e.g., 10, 13) were measured at an excitation wavelength (302 nm), emission wavelength (396 nm), and auto cutoff wavelength (325 nm). Similarly, the fluorescent substrates containing 5-amino-2-methoxy-6-methylpyridine (e.g., 11, 14, and 17) were measured at an excitation wavelength (304 nm), emission wavelength (392 nm), and an auto cutoff wavelength of 325 nm. In addition, an excitation wavelength (366 nm), emission wavelength (496 nm), and auto cutoff wavelength (495 nm) were used for the substrates (e.g., 12 and 15) containing 7-amino-4-trifluoromethyl coumarin.

[2] = Comparison of aqueous solubility of substrates (absorbance at 800 nm); type: physicochemical; conditions: 0.1 M phosphate buffer (pH 8.0), 1% ethanol, 37° C.
Protocol: Comparison of aqueous solubility of substrates. The aqueous solubility of the aminopyridine derivatives (e.g., 13, 14) and the 7-aminocoumarin derivative (e.g., 15) was determined in clear 96-well styrene flat-bottom microtiter plates with a Spectra Max M2 spectrophotometer. Different concentrations of the substrates (13, 14 and 15; final concentration: 0.39, 0.78, 1.56, 3.13, 6.25, 12.5, 25, 50, 100, or 200 μM) in 200 μl 0.1 M sodium phosphate buffer (1% ethanol; pH 8.0) were used and the absorbance was recorded at a wavelength of 800 nm at 37° C. The measurements were performed in three replicates for each concentration.

Compound: CCCCCCCC(=O)Nc1ccc(OC)nc1 [Compound 13, N-(6-methoxypyridin-3-yl) octanamide]
- base line, Average ([1]; 0 min, protein 0.11 (13), 0.67 (14), 100 (15), 0.5 (17) μg/well, 200 μM (13),(14), 25 μM (15), 50 μM (17)): 302 RFU
- signal, Average ([1]; 10 min, protein 0.11 (13), 0.67 (14), 100 (15), 0.5 (17) μg/well, 200 μM (13),(14), 25 μM (15), 50 μM (17)): 1091* RFU
- difference between (13) and (17) in limit of protein detection ([1]; Table 2): 5 times
- Protein, lowest detection limit of microsomal FAAH (signal at 10 min ≥ three times base line) ([1]; pH 8.0, 37° C., 200 μM (13), (14), 50 μM (17)): 0.11 μg/200 μ′
- lowest detection limit of protein ([1]; signal at 10 min equal to three times base line): 0.55 μg protein/ml
- aqueous solubility compared with coumarin substrate (15) [2]: much higher solubility
